Laboratory results: patent EP0594223B1, “Combination of therapeutic nucleosides and further therapeutic agents” (THE WELLCOME FOUNDATION LIMITED, priority 1985, dated 1987)
Read-outs that look alike come from different tables or passages of the source.

What was measured:
HIV [1] = test: AZT/acyclovir combination, in vitro efficacy (protection) vs. HIV; type: cell-based
Procedure: Using a method analogous to that described in Example 79 of EP21758A, combinations of AZT and acyclovir (ACV) were tested for in vitro efficacy vs. HIV.

[2] = system: Friend Lenkemia Virus (FLV); test: Anti-Friend Leukemia Virus plaque inhibition in FG-10 cells; type: cell-based
Procedure: FG-10 cells were seeded on a plate one day before they were infected with FLV. One hour after infecting, known concentrations of the test compounds or combinations were added. The plates were incubated for 3 days, the media replaced with fresh McCoy's 5A media and incubated another 3 days. […]

HIV [3] = test: Reverse transcriptase activity in supernatant of HIV-infected PBMC, with multiple drug effect analysis; type: cell-based; details: for mean reverse transcriptase values: Experiment 2, Day 10
HIV [4] = test: Virus yield of HIV-infected PBMC cultures; type: cell-based; details: Experiment 3, Day 13; AZT .04 µM alone
HIV [5] = test: HIV p24 antigen by radioimmunoassay in HIV-infected PBMC cultures; type: cell-based; details: Experiment 4, Day 14
E. coli CN314 = test: MIC determination of each drug alone; type: cell-based; details: Escherichia coli
Procedure: Microtiter dilutions were prepared using Wellcotest broth. Prior to synergy testing, MIC determinations were made for each compound individually against the test organism (E. coli CN314).

[6] = system: vaccinia, HSVI and varicella zoster virus (VZV); details: De Clerq et al, Biochem.Pharm. (1980) 29, 1849-1851; including DNA viruses; cited from earlier work
[7] = test drugs alone, E. coli CN314, read-out: MIC

## Nc1nc2c(ncn2COCCO)c(=O)[nH]1 [ACV, 9-(2-hydroxyethoxymethyl) guanine, reference compound]
HIV [1]; ACV alone, 16 µg/ml (the highest tested)
  protection: less than 30%
HIV [1]; ACV combined with AZT vs. HIV
  potentiates the antiviral activity of AZT: about 3 fold

## Cc1cn([C@H]2C[C@H](N=[N+]=[N-])[C@@H](CO)O2)c(=O)[nH]c1=O [AZT]
[2]; read-out: Azidothymidine ED50
  EC50: 5 nM
HIV [1]; AZT alone at 8µM
  protection: 100%
HIV [1]; Table 3: AZT concentration with ACV 0 µg/ml, effect level not stated (presumably full protection)
  AZT: 8 µM
HIV [3]; AZT 0.01 µM alone
  mean reverse transcriptase values: 159 cpm/10^6 cells x 10^3
HIV [3]; AZT 0.02 µM alone
  mean reverse transcriptase values: 110 cpm/10^6 cells x 10^3
HIV [3]; AZT 0.04 µM alone
  mean reverse transcriptase values: 71 cpm/10^6 cells x 10^3
HIV [3]; AZT 0.08 µM alone
  mean reverse transcriptase values: 31 cpm/10^6 cells x 10^3
HIV [3]; AZT 0.16 µM alone
  mean reverse transcriptase values: 7 cpm/10^6 cells x 10^3
HIV [3]; Experiment 3, Day 13, AZT 0.02 µM alone
  mean RT values: 51 cpm/10^6 cells x 10^3
HIV [3]; Experiment 3, Day 13, AZT 0.04 µM alone
  mean RT values: 10 cpm/10^6 cells x 10^3
HIV [3]; Experiment 3, Day 13, AZT 0.08 µM alone
  mean RT values: 2 cpm/10^6 cells x 10^3
HIV [3]; Experiment 3, Day 13, AZT 0.16 µM alone
  mean RT values: 5 cpm/10^6 cells x 10^3
HIV [3]; Experiment 4, Day 11, AZT 0.02 µM alone
  mean RT values: 8 cpm/10^6 cells x 10^3
HIV [3]; Experiment 4, Day 11, AZT 0.04 µM alone
  mean RT values: 4 cpm/10^6 cells x 10^3
HIV [3]; Experiment 4, Day 11, AZT 0.08 µM alone
  mean RT values: 1 cpm/10^6 cells x 10^3
HIV [3]; experiment 1, all concentrations of AZT (3.2 µM and 5 twofold dilutions)
  inhibition of viral replication: fully inhibitory
HIV [4]
  virus yield: 10^3 TCID50 /ml
HIV [5]; AZT 0.02 µM alone
  HIV p24: 100-200 ng protein/ml
HIV [5]; AZT 0.04 µM alone
  HIV p24: 25-30 ng protein/ml
HIV [5]; AZT 0.08 µM alone
  HIV p24: 11.2 ng protein/ml
E. coli CN314; [7]
  MIC: 1 µg/mL
[6]
  activity against viruses: no appreciable activity

## O=C(N[C@H](CO)[C@H](O)c1ccc([N+](=O)[O-])cc1)C(Cl)Cl [Chloramphenicol]
E. coli CN314; [7]
  MIC: 3.1 µg/mL

## CCC[C@@H]1C[C@@H](C(=O)N[C@@H]([C@H]2O[C@H](SC)[C@H](O)[C@@H](O)[C@H]2O)[C@H](C)Cl)N(C)C1 [Clindamycin]
E. coli CN314; [7]
  MIC: 100 µg/mL

## CC[C@H]1OC(=O)[C@H](C)[C@@H](O[C@H]2C[C@@](C)(OC)[C@@H](O)[C@H](C)O2)[C@H](C)[C@@H](O[C@@H]2O[C@H](C)C[C@H](N(C)C)[C@H]2O)[C@](C)(O)C[C@@H](C)C(=O)[C@H](C)[C@@H](O)[C@]1(C)O [Erthromycin]
E. coli CN314; [7]
  MIC: 25 µg/mL

## CC(=O)O[C@H]1C[C@@]2(C)[C@@H](C[C@@H](O)[C@H]3[C@@]4(C)CC[C@@H](O)[C@@H](C)[C@@H]4CC[C@@]32C)/C1=C(\CCC=C(C)C)C(=O)O [Fusidic acid]
E. coli CN314; [7]
  MIC: 1000 µg/mL

## CO[C@H]1/C=C/O[C@@]2(C)Oc3c(C)c(O)c4c(O)c(c(/C=N/N5CCN(C)CC5)c(O)c4c3C2=O)NC(=O)/C(C)=C\C=C\[C@H](C)[C@H](O)[C@@H](C)[C@@H](O)[C@@H](C)[C@H](OC(C)=O)[C@@H]1C [Rifampicin]
E. coli CN314; [7]
  MIC: 6.2 µg/mL

## Cc1cc(C)nc(NS(=O)(=O)c2ccc(N)cc2)n1 [Sulphadimidine]
E. coli CN314; [7]
  MIC: 32 µg/mL

## NC[C@H]1O[C@H](O[C@H]2[C@H](O)[C@@H](O[C@H]3O[C@H](CO)[C@@H](O)[C@H](N)[C@H]3O)[C@H](N)C[C@@H]2N)[C@H](N)C[C@@H]1O [Tobramycin]
E. coli CN314; [7]
  MIC: 0.4 µg/mL

## COc1cc(Cc2cnc(N)nc2N)cc(OC)c1OC [Trimethoprim, 2,4-diamino-5-(3',4',5'-trimethoxybenzyl) pyrimidine]
E. coli CN314; CN314
  MIC: 0.125 µg/mL

## COc1cc(C(=O)OCCCN2CCCN(CCCOC(=O)c3cc(OC)c(OC)c(OC)c3)CC2)cc(OC)c1OC [dilazep]
[2]; dilazep alone, 5 µM
  antiviral effect: Neither dipyridamole (10 µM) nor dilazep (5 µM) alone had any observed antiviral effect

## OCCN(CCO)c1nc(N2CCCCC2)c2nc(N(CCO)CCO)nc(N3CCCCC3)c2n1 [dipyridamole]
[2]; dipyridamole alone, 10 µM
  antiviral effect: Neither dipyridamole (10 µM) nor dilazep (5 µM) alone had any observed antiviral effect
